Source: patent publication US6586435B2, “Benzimidazolone derivatives displaying affinity at the serotonin and dopamine receptors” (Boehringer Ingelheim Pharma KG, priority 2000, dated 2003)
Like-named read-outs stand apart in the source and are kept apart here.

How the values were obtained:
5-HT1A human receptors = molecular target: T1, 5-HT1A human receptors (Homo sapiens, UniProt P08908); assay: 5-HT1A radioligand receptor binding assay ([3H]-8-OH-DPAT); details: for inhibition at 0.1 µM: compound 10^−7 M, singlicate, [3H]-8-OH-DPAT 0.6-0.7 nM
T1 construct: expressed in transfected cells; host or cells: CHO cells
T1 sequence (P08908 1-422): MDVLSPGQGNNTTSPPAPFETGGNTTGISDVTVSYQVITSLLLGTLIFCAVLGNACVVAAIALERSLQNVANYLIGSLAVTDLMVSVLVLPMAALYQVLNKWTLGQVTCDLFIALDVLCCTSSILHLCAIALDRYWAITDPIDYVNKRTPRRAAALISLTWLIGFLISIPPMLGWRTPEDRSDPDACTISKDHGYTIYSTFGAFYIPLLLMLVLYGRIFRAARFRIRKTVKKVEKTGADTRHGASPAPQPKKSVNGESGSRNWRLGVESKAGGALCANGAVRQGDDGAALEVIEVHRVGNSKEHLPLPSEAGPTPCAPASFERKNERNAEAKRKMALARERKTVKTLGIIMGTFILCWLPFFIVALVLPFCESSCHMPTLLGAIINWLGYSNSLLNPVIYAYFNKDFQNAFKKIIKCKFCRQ
Procedure: 5-HT1A, Radioligand Receptor Binding Assay
Membranes from CHO cells, expressing 5-HT1A human receptors were suspended in incubation buffer.
Binding assays were performed in MultiProbe 204 pipetting system (Packard), according to a predetermined mapping, consistent with the software Screen. The compounds were tested in singlicate at one concentration (10^−7 M) in a total volume of 1000 μl. 980 μl of diluted membranes, 10 μl DMSO or unlabelled ligand, and 10 μl of [^3H]-8-OH-DPAT (0.6-0.7 nM) were incubated for 60 minutes at 27° C. The reaction was stopped by rapid filtration through Tomtec Cell Harvester (48 wells) using Filtermat B (presoaked in 0.1% PEI) filters. Filters were washed with ice-cold 50 mM Tris-HCl (pH 7.4) buffer (9×700 μl), dried, covered with MeltiLex B/HS scintillator sheets (Wallac) and heated at 80° C. to 90° C. for about 10 minutes, transferred into plastic sample bags (Wallac), sealed and put into 1024 Beta Plate scintillation counter (Wallac). Non-specific binding was determined in the presence of 5-HT (10^−5 M).
The specific radioligand binding to the receptor was defined by the difference between total binding and non-specific binding, determined in the presence of an excess of unlabelled ligand. Results were expressed as percentage of control specific binding obtained in the presence of the compounds. The affinity values (IC50) for the compounds were obtained by a nonlinear least squares regression analysis on the basis of a one binding site model.

D4 human receptors = molecular target: T2, D4 human receptors (Homo sapiens, UniProt P21917); assay: D4 radioligand receptor binding assay ([3H] YM-09151-2); details: compound 10^−7 M, singlicate; membranes from CHO cells; [3H] YM-09151-2 0.15-0.25 nM
T2 construct: expressed in transfected cells; host or cells: CHO cells
T2 sequence (P21917 1-419): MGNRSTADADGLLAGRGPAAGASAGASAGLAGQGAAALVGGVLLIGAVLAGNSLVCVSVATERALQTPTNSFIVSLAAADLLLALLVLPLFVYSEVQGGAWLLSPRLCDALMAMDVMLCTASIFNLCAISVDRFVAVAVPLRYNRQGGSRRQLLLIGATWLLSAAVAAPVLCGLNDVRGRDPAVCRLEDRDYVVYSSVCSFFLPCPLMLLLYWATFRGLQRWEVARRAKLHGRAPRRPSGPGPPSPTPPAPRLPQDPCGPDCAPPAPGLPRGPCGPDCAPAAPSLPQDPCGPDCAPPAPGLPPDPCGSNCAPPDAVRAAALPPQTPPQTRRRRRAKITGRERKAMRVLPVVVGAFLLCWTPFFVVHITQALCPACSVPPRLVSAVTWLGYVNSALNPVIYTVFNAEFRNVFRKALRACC
Procedure: D4 Radioligand Receptor Binding Assay
Membranes from CHO cells, expressing D4 human receptors were suspended in incubation buffer.
Binding assays were performed in MultiProbe 204 pipetting system (Packard), according to a predetermined mapping, consistent with the software Screen. The compounds were tested in singlicate at one concentration (10^−7 M) in a total volume of 1000 μl (980 μl of diluted membranes, 10 μl DMSO or unlabelled ligand, and 10 μl of [^3H] YM-09151-2 (0.15-0.25 nM). After incubation for 120 minutes at 27° C., the reaction was stopped by rapid filtration through Tomtec Cell Harvester (48 wells) using Filtermat B (presoaked in 0.1% PEI) filters. Filters were washed with ice-cold 50 mM Tris-HCl (pH 7.4) buffer (9×700 μl), dried, covered with MeltiLex B/HS (Wallac) scintillator sheets and heated in oven at 80° C.-90° C. for about 10 minutes, transferred into plastic sample bags (Wallac), sealed and put into 1024 Beta Plate scintillation counter (Wallac). Non-specific binding was determined in the presence of clozapine dissolved in DMSO to a final concentration of 10^−5 M.
The specific radioligand binding to the receptor was defined by the difference between total binding and non-specific binding, determined in the presence of an excess of unlabelled ligand. Results were expressed as percentage of control specific binding obtained in the presence of the compounds.

[1] = molecular target: T3, 5-HT1A receptor (CHO/5-HT1A cells) (Homo sapiens, UniProt P08908); assay: 5-HT1A functional assay (cAMP); type: cell-based; details: 10 μM compound, % inhibition of the cAMP accumulation induced by 10 μM FSK, read-out: 5-HT1A cAMP % Inhibition (agonist activity)
T3 construct: expressed in transfected cells; host or cells: CHO/5-HT1A cells
T3 sequence (P08908 1-422): T1 sequence (P08908 1-422)
Procedure: 5-HT1A Functional Assay (cAMP)
CHO/5-HT1A cells were random seeded at a density of about 200,000/well in 24 well plates the day prior to the experiment. On the day of the experiment, cells were pretreated for 15 minutes at 37° C. with 500 μM isobutylmethylxantine (IBMX) dissolved in culture medium without serum. Wells were then divided in different groups in duplicate as follows: control, 10 μM FSK, 10 μM FSK+1 μM 5-HT as positive standard and 10 μM FSK+10 μM of the different compound under evaluation. Sample solutions were added and incubated for additional 15 minutes at 37° C. After incubation, medium was aspirated and the reaction stopped by adding 200 μl of lysis buffer. Plates were shaken for 5 minutes, then the lysate was removed and samples were stored at 4° C. until the day of the assay. For the cAMP evaluation, samples were properly diluted and the cAMP content was measured by an enzyme immunoassay system.
Results are expressed as % inhibition of the cAMP accumulation induced by 10 μM FSK.

[2] = membranes from CHO cells, [3H]-8-OH-DPAT, one binding site model, read-out: 5-HT1A Receptor Binding IC50

| Compound | inhibition at 0.1 µM (5-HT1A human receptors; membranes from CHO cells) [%] | IC50 (5-HT1A human receptors; [2]) [nM] | inhibition at 0.1 µM (D4 human receptors) [%] | inhibition at 10 µM [1] [%] | IC50 (5-HT1A human receptors) [nM] |
| --- | --- | --- | --- | --- | --- |
| O=c1n(C/C=C\CN2CCN(c3ccccc3)CC2)c2ccccc2n1CC1CCCCC1 [Compound 69] | 90 | 13 | 41 | 52 |  |
| O=c1n(C/C=C/CN2CCN(c3ccccn3)CC2)c2ccccc2n1CC1CCCCC1 [Compound 123] | 98 | 1.2 | 57 | 63 |  |
| CCCn1c(=O)n(C/C=C\CN2CCN(c3ccccc3)CC2)c2ccccc21 [Compound 52] | 90 | 16 | 47 | 54 |  |
| O=c1[nH]c2ccccc2n1C/C=C/CN1CCN(c2cccc(C(F)(F)F)c2)CC1 [Compound 9] | 96 |  | 54 | 80 | 4.8 |
| Cn1c(=O)n(C/C=C/CN2CCN(c3cccc(C(F)(F)F)c3)CC2)c2ccccc21 [Compound 94] |  | 0.96 |  | 75 |  |
| O=c1n(C/C=C/CN2CCN(c3cccc(Cl)c3)CC2)c2ccccc2n1CC1CCCCC1 [Compound 124] | 99 | 11 | 49 | 47 |  |
| O=c1n(C/C=C/CN2CCN(c3ccccc3)CC2)c2ccccc2n1CC1CCCCC1 [Compound 120] | 98 | 6 | 49 | 17 |  |
| CCCn1c(=O)n(C/C=C/CN2CCN(c3ccccn3)CC2)c2ccccc21 [Compound 106] | 92 | 7.4 | 37 | 68 |  |
| O=c1n(C/C=C/CN2CCc3c([nH]c4ccccc34)C2)c2ccccc2n1CC1CCCCC1 [Compound 126] |  | 15 |  | 44 |  |
| CCCn1c(=O)n(C/C=C\CN2CCN(c3cccc(Cl)c3)CC2)c2ccccc21 [Compound 56] | 92 | 11 | 65 | 65 |  |
| Cn1c(=O)n(C/C=C\CN2CCN(c3cccc(Cl)c3)CC2)c2ccccc21 [Compound 39] | 91 | 9.8 | 72 | 63 |  |
| Cn1c(=O)n(C/C=C/CN2CCc3c([nH]c4ccccc34)C2)c2ccccc21 [Compound 92] | 88 | 15 | 54 | 46 |  |
| CCCn1c(=O)n(C/C=C/CN2CC=C(c3ccccc3)CC2)c2ccccc21 [Compound 112] | 87 |  | 43 | 9 | 13 |
| Cn1c(=O)n(C/C=C\CN2CCN(c3ccccc3)CC2)c2ccccc21 [Compound 35] | 88 | 15 | 59 | 66 |  |
| CCCn1c(=O)n(C/C=C/CN2CCN(c3cccc(Cl)c3)CC2)c2ccccc21 [Compound 107] | 96 | 5.3 | 69 | 54 |  |
| O=c1n(C/C=C\CN2CC=C(c3ccccc3)CC2)c2ccccc2n1CC1CCCCC1 [Compound 78] | 86 |  | 40 | 27 | 18 |
| CCCn1c(=O)n(C/C=C\CN2CC=C(c3ccccc3)CC2)c2ccccc21 [Compound 61] | 90 |  | 44 | 26 | 5.2 |
| Cn1c(=O)n(C/C=C/CN2CCN(c3cccc(Cl)c3)CC2)c2ccccc21 [Compound 90] | 98 | 4.6 | 79 | 62 |  |
| Cn1c(=O)n(C/C=C/CN2CC=C(c3ccccc3)CC2)c2ccccc21 [Compound 95] | 92 |  | 46 | 22 | 7.3 |
| CCCn1c(=O)n(C/C=C\CN2CCN(c3cccc(C(F)(F)F)c3)CC2)c2ccccc21 [Compound 60] | 88 | 1.8 | 30 | 71 |  |
| O=c1n(C/C=C/CN2CCN(c3cccc(C(F)(F)F)c3)CC2)c2ccccc2n1CC1CCCCC1 [Compound 128] |  | 8.4 |  | 61 |  |
| Cn1c(=O)n(C/C=C/CN2CCN(c3ccccn3)CC2)c2ccccc21 [Compound 89] | 92 | 10 | 34 | 66 |  |
| O=c1n(C/C=C/CN2CC=C(c3ccccc3)CC2)c2ccccc2n1CC1CCCCC1 [Compound 129] |  |  |  | 13 | 5.5 |
